Each structure is given as a SMILES string.

Data on 1 compound can be found in patent US20230301972A1, “ANTI-FIBROTIC COMPOSITION AND RELATED METHODS” (Fred Hutchinson Cancer Center, priority 2020, published 2023).

The test system of one series is FGFR. Kind of series: Kinome-profiling, FGFR. In kind it is biochemical. Particulars: at 500 nM.
The test system of series [1] is IPF-LL29 and IPF-LL97A cells. Briefly: qPCR of TGF-β-induced gene expression in IPF-LL29 and IPF-LL97A cells. It counts as cell-based, human. Particulars: human lung fibroblast cell lines derived from IPF patients. As for the experimental part: (§1) IPF-LL29, IPF-LL97A, and human lung fibroblast LL47 cell lines were purchased from ATCC. Mouse lung fibroblasts were isolated from the lungs of male C57BL/6J mice. Cells were grown at 37° C. under 5% CO2, 95% ambient atmosphere and maintained in Dulbecco's […] (DMEM) supplemented with 10% FBS (Sigma) and 1% Penn Strep.
FIGS. 2A and 2B. IPF-29 (FIG. 2A) or IPF-97A (FIG. 2B) cells were incubated with TGF-β alone at 5 ng/ml or TGF-β with indicated drugs for 48 hours and 5 days. Total cellular RNA was isolated using a RNeasy Mini Kit (QIAGEN). 1 μg of total RNA was reverse transcribed into first-strand cDNA using an RT2 First Strand Kit (QIAGEN). The resultant cDNA was subjected to qPCR using indicated human primers to measure the changes in mRNA expression of indicated human genes.

For a further series, the system named is LX2 cells. Kind of series: Live cell wound healing assay in LX2 cells. It counts as cell-based, human. Particulars: 1 μM; TGFb 6.5 ng/ml; wound closure density at 50 hour. Here is the method:
LX2 cells were obtained from Sigma Aldrich (Cat #SCC064). LX2 cells were grown at 37° C. under 5% CO2, 95% ambient atmosphere and maintained in Dulbecco's […] (DMEM) supplemented with 10% FBS (Sigma) and 1% Penn Strep.
FIG. 10A: LX2 cells were plated on 96-well plates (Essen Image Lock, Essen Instruments). […] Wound closure was monitored with Incucyte Live-Cell Imaging System and software (Essen Instruments) every 2-4 hours for 72 hours. The mean relative wound density of at least three biological replicates was calculated. The wound density correlates with the cell motility. Plotted is the wound closure density at 50 hour.

In the next series the test system is mouse lung fibroblasts. Kind of series: qPCR of TGF-β-induced gene expression in mouse primary lung fibroblasts. In kind it is cell-based. Particulars: TGF-β 5 ng/ml, 24 hours. As for the experimental part:
as §1
FIGS. 3A and 3B. Human lung fibroblast LL47 and mouse primary lung fibroblasts isolated from mouse lungs were incubated with TGF-β alone at 5 ng/ml or TGF-β with indicated drugs for 24 hours. Same method as outlined in FIGS. 2A and 2B was used to measure the mRNA expression of indicated human or mouse genes.

Another series has as its system LL47 cells. Briefly: Real-time wound healing assay (Incucyte) in lung fibroblasts. The note with it: dose-dependent; human lung fibroblasts. It counts as cell-based. Here is the method: FIG. 5A: LL47 cells were plated on 96-well plates (Essen Image Lock, Essen Instruments). […] Wound closure was monitored with Incucyte Live-Cell Imaging System and software (Essen Instruments) every 2-4 hours for 72 hours. The mean relative wound density of at least three biological replicates was calculated. The wound density correlates with the cell motility.

A further series concerns SMAD2 phosphorylation. Briefly: Immunoblot of TGF-β-mediated SMAD2 phosphorylation in LX2 cells. In kind it is cell-based, human.
The test system of series [2] is bleomycin-induced lung fibrosis. Briefly: Bleomycin-induced lung fibrosis mouse model. It counts as in vivo. Here is the method: FIG. 6B: Male C57BL/6J mice between 7-10 week old were used in the study. A single dose of 50 IU of bleomycin was given to mouse lung via oropharyngeal aspiration to induce lung fibrosis. […] Mice were sacrificed on Day 28 after bleomycin treatment. Lungs were either snap frozen or fixed in 10% formalin and stained for H&E and Masson Trichrome.
FIG. 6C: H&E and Masson Trichrome staining were evaluated and scored by a board-certified veterinary pathologist.
FIG. 7A: Total protein was extracted from the snap frozen lung tissue in T-PER™ Tissue Protein Extraction Reagent by Omni Bead Ruptor homogenizer. Changes in collagen I and the phosphorylation levels of indicated proteins were detected in the lung homogenates from the bleomycin in vivo studies by reverse-phase protein array.
FIG. 7B: pSTAT3 levels were detected in the fixed lung tissue by immunohistochemistry. Intensity of staining was quantified by HALO imaging software.
FIG. 8: Total RNA was extracted from the snap frozen lung tissue in TRIzol™ Reagent by Omni Bead Ruptor homogenizer. 1 μg of total RNA was reverse transcribed into first-strand cDNA using an RT2 First Strand Kit (QIAGEN). The resultant cDNA was subjected to qPCR using indicated mouse primers to measure the changes in mRNA expression of indicated mouse genes.
A single dose of 25-50 IU of bleomycin was given to mouse lung via oropharyngeal aspiration to induce lung fibrosis. […] Lungs were processed and stained for H&E and Masson Trichrome.

For a further series, the system named is TGFBR1/2. Kind of series: Kinome-profiling, TGFBR1/2. It counts as biochemical. The note with it: at 500 nM.
The test system of a further series is SMAD2/3. Kind of series: SMAD firefly luciferase TGF-β reporter assay in IPF-LL29 cells. It counts as cell-based, human. Particulars: TGF-β 5 ng/ml, 24 hour. As for the experimental part: as §1
FIG. 1A. A TGF-β reporter cell line was generated by transducing a SMAD firefly luciferase reporter (Cellomics Tech, Cat #PLV-10099-50) into IPF-LL29 cells. […] 24 hours later, luciferase substrate was added to the cells and luciferase signal was measured by Bright-Glo reagent (Promega) using a luminescent plate reader. The intensity of the signal correlates with the activity of SMAD2/3.

The next series has as its system VEGFR. Kind of series: Kinome-profiling, VEGFR. The note with it: at 500 nM. In kind it is biochemical.
Another series relates to IPF lung fibroblasts. Kind of series: Collagen contraction assay in lung fibroblasts. In kind it is cell-based, human. Here is the method: FIG. 5B: LL-47 cells were cultured in a collagen gel solution in 24-well plate. […] After 24 hours, cell contraction was initiated by releasing the collagen gels from the sides of the culture dishes. The collagen gel size change (contraction index) was measured at various times and quantified with Image Lab.
FIG. 5C: same method as outlined in FIG. 5B. IPF-LL29 and IPF-LL97A cells were cultured in a collagen gel solution. 24 hours later, TGF-β alone or together with indicated drugs was added for 24 hours before cell contraction was initiated. Images shown here were taken 120 hours after the initiation of cell contraction.

As to `NC(=O)c1c(OCc2c(F)cc(Br)cc2F)nsc1NC(=O)NCCCCN1CCCC1` [OSI-632, 3-(4-bromo-2,6-difluoro-benzyloxy)-5-[3-(4-pyrrolidin-1-yl-butyl)-ureido]-isothiazole-4-carboxylic acid amide], in the series with FGFR, the “inhibition of FGFR” value worked out at 90%. For the same compound, in [1] (48 hours and 5 days), the “TGF-β-induced expression of myofibroblast activation markers αSMA, COL1A1, COL3A1 and FN1” value was “decreased”. Besides, the “expression of myofibroblast proliferation stimuli TGFB1, CTGF, IL-11, FGF2 and VEGFA” value in [1] (TGF-β 5 ng/ml) is on record as “significant decrease”. Further, in the series with LX2 cells, the “TGF-β-induced motility of LX2 cells” value is listed as “significantly decreased”. Also, in the series with mouse lung fibroblasts, the “expression of indicated fibroblast activation and proliferation factors” value is “inhibited expression”. Further, in the series with LL47 cells, the “motility (cell migration), real-time wound healing assay” value is listed as “potently decreased motility”. In addition, the “activation of TGF-β-mediated SMAD2 phosphorylation (immunoblot)” value in the series on SMAD2 phosphorylation was “blocks activation”. In addition, the “lung fibrosis, scoring of H&E and Masson Trichrome staining by veterinary pathologist” value in [2] (50 mg/kg oral, once a day Monday to Friday for 2 weeks, mice) is listed as “significantly decreased lung fibrosis”. Besides, the “lung inflammation, scoring of H&E and Masson Trichrome staining” value in series [2] (bleomycin mouse model) is on record as “significantly decreased”. In addition, the overall survival in series [2] (bleomycin mouse model, OSI-632 treatment) was 100%. In series [2] (vs bleomycin only treated mice, 50 mg/kg), the “collagen deposition (Masson trichome staining)” value was “significant reduction”. Besides, in [2] (vs bleomycin-only treated mouse lung tissues, RPPA, IHC), the “phosphorylation of Src, Erk, JNK, S6, Nfκβ, and pSTAT3 in lung” value was “significantly decreased”. The “bleomycin-induced collagen levels and pro-fibrotic factors Fn1, IL-6 and IL-1b in lung” value in [2] (vs bleomycin-only treated mouse lung tissues, RPPA, qPCR) was “significantly decreased”. Also, the “inhibition of TGFBR1/2” value in the series on TGFBR1/2 was determined as 91%. In addition, in the series with SMAD2/3, the “SMAD2/3 activity (luciferase reporter, dose response)” value is “inhibited SMAD2/3 activity”. The “inhibition of VEGFR” value in the series with VEGFR is reported as roughly 75%. In addition, in the series on IPF lung fibroblasts (0.5 or 1 mM OSI-632 as printed, TGF-β-stimulated), the “contractility in collagen contraction assay” value is “significantly decreased contractility”. In addition, the “inhibition of motility and contraction compared with nintedanib or pirfenidone” value with IPF lung fibroblasts (collagen contraction assay, IPF-LL29 and IPF-LL97A cells, 120 hours) is on record as “significantly outperforms inhibition by nintedanib or pirfenidone”.
